{"source": "patent US8143307B2", "about": "“Benzothiophen-2-carbonylguanidine derivatives, preparation thereof, and pharmaceutical composition containing the same” (Korea Research Institute of Chemical Technology, priority 2004, dated 2012)", "key": {"[1]": {"test_system": "in vivo ischemic rat heart model", "assay": "Cardioprotective effect on in vivo ischemic rat heart model (coronary occlusion/reperfusion, infarct size)", "details": "45 min occlusion, 90 min reperfusion", "description": "The cardioprotective effect of the benzothiophen-2-carbonylguanidine derivatives according to the present invention in in vivo ischemic hearts was judged with regard to their antischemic effects (myocardiac infarction reduction) on rats as follows.\nEach male rat (300˜450 g, the Korea Research Institute of Chemical Technology, Experimental Animal Lab) was anesthetized by intraperitoneal injection with sodium pentobarbital at a dose of 75 mg/kg. Tracheotomy was performed and a tube was inserted into the trachea for subsequent artificial ventilation with a stroke volume of 10 ml/kg and a respiratory rate of 60 breaths/min. The femoral vein and the femoral artery were cannulated for the administration of the compounds and for the measurement of blood pressures, respectively. Meanwhile, the body temperature of the rats, an important factor to influence experimental results in the ischemic myocardiac injury model, was maintained constant at 37° C. using a homeothermic blanket control unit, with a body temperature-monitoring probe inserted into the rectum. Subsequently, rats were continuously measured for mean arterial blood pressure and heart rate HR throughout the experimental time period using a Statham P23XL pressure transducer (Grass Ins., Mass., USA) and an ECG/RATE Coupler (Hugo Sachs Electronic, Germany), respectively, with all continuous changes thereof recorded by Graphtec Linearcorder WR 3310 (Hugo Sachs Electronic).\nThe left coronary artery was occluded according to Selye H.'s method. In detail, after the chest of each rat was partially opened by left thoracotomy, the middle finger of the left hand was pressed against the right side of the chest of the rat to thrust out the heart which was then slightly fixed with the forefinger and the thumb of the same hand. Then, immediately after the left anterior descending coronary artery (LAD) was sutured with a 5-0 silk ligature, the heart was repositioned back in the thoracic cavity with both ends of the suture positioned outside. The ends of the suture were threaded through a PE tube (PE100, 2.5 cm) and allowed to stand for 20 min for stabilization. Through the cannula inserted into the femoral vein, a vehicle or the compounds of the invention were administered and 30 min was needed for sufficient effects of the administered compounds. Cariporide was used as a control. The ends of the suture threaded through the PE tube were pulled taut with hemostatic forceps to vertically press the PE tube against the coronary artery. After occlusion for 45 min, the hemostatic forceps were removed and reperfusion was conducted for 90 min.\nThe coronary artery was reoccluded in the same manner as described above, followed by the intravenous injection of 2 ml of 1% Evans blue. The intravenous injection of an excess of pentobarbital killed the rats, from which the hearts were then excised. The left ventricle was removed alone from the isolated heart and transected from the cardiac apex into 5 or 6 slices. Each slice was weighed. The image of each of the heart slices was captured using a Hi-scope, a compact vision system, and analyzed for blue-stained normal areas and non-stained areas with an image analyzing program (Image Pro Plus). In each slice, the area at risk (AAR) was calculated by multiplying the ratio of the non-stained area to the total area of the slice with the weight of the slice. Sum of the individual area at risk (AAR) for each slice was divided by the total weight of the left ventricle to obtain AAR (%) according to the following mathmatical formula 1.\nSeparately, the heat slices were incubated in 1%. 2,3,5-triphenyltetrazolium chloride (TTC) phosphate buffer (pH 7.4), 37° C., for 15 min and fixed in 10% formalin for 20˜24 hours. In the normal area of the tissue, 2,3,5-triphenyltetrazolium chloride was reduced by the myocardial dehydrogenase in the presence of the cofactor NADH to form formazan dye, which appeared as a brick-red color. […]"}, "[2]": {"test_system": "cortical neurons", "assay": "Neuroprotective effect against glutamate-induced neurotoxicity", "format": "cell-based, rat", "details": "for TUNEL-Positive Cells (apoptosis): 12 hours after glutamate treatment; for Free LDH Levels (necrosis): 20 hours after glutamate treatment", "description": "Cortical neurons were isolated from the brain of 14-day-old fetal rats and cultured in Eagle's MEM (Minimum essential medium) at 37° C. in a 5% CO2 atmosphere. On day 3 or 4 of culturing, 10 μM cytosine-β-arabinofuranoside (AraC) was added to the culture medium to prevent the overgrowth of glial cells. […] On day 7˜9 of culturing, the cells were induced to cellular toxicity by treatment with 100 μM glutamate in combination with the compounds of interest or vehicle alone as a negative control. Necrosis was determined by released LDH (Lactate dehydrogenase) levels at 20 hours after glutamate treatment. For the analysis of apoptosis, the count of TUNEL (Terminal deoxynucleotidyl transferase UTP nick end labeling)-positive cells was measured at 12 hours after glutamate treatment."}}, "data": [{"smiles": "CS(=O)(=O)O.N#Cc1cccc2sc(C(=O)N=C(N)N)cc12", "note": "[Example 42, (4-Cyanobenzothiophene-2-Carbonyl)Guanidine Methanesulfonate]", "values": [{"measurement": "Myocardiac infarction rate (IS/AAR, %)", "setting": "[1]; 0.1 mg/kg intravenous", "value": 36.9, "unit": "%"}, {"measurement": "Myocardiac infarction rate (IS/AAR, %)", "setting": "[1]; 0.3 mg/kg intravenous", "value": 34.4, "unit": "%"}, {"measurement": "TUNEL-Positive Cells (apoptosis)", "setting": "[2]; 0.1 μM with 100 μM glutamate", "value": 28.6}, {"measurement": "Free LDH Levels (necrosis)", "setting": "[2]; 0.1 μM with 100 μM glutamate", "value": 58.6}, {"measurement": "TUNEL-Positive Cells (apoptosis)", "setting": "[2]; 1.0 μM with 100 μM glutamate", "value": 23.9}, {"measurement": "Free LDH Levels (necrosis)", "setting": "[2]; 1.0 μM with 100 μM glutamate", "value": 43.2}, {"measurement": "TUNEL-Positive Cells (apoptosis)", "setting": "[2]; 10 μM with 100 μM glutamate", "value": 18.8}, {"measurement": "Free LDH Levels (necrosis)", "setting": "[2]; 10 μM with 100 μM glutamate", "value": 38.8}, {"measurement": "TUNEL-Positive Cells (apoptosis)", "setting": "[2]; 100 μM with 100 μM glutamate", "value": 12.6}, {"measurement": "Free LDH Levels (necrosis)", "setting": "[2]; 100 μM with 100 μM glutamate", "value": 32.3}, {"measurement": "necrosis and apoptosis of neurons (glutamate-induced neurotoxicity)", "setting": "[2]; 0.1-100 μM with 100 μM glutamate", "value": "inhibited the necrosis and apoptosis of neurons in dose-dependent manners"}]}]}
